In ChEMBL document CHEMBL2169748 (J Med Chem, 2012):
In brackets after ≈: the same amount, converted by molar mass.

Legend:
[1] = Oral bioavailability in dog; format: ADME, organism-based, Canis lupus familiaris; conditions: in vivo
[2] = Half life in dog; format: ADME, organism-based, Canis lupus familiaris; conditions: in vivo
[3] = Half life in rat; format: ADME, organism-based; conditions: in vivo
[4] = Volume of distribution at steady state in rat; format: ADME, organism-based; conditions: in vivo, read-out: Vdss
[5] = Volume of distribution at steady state in dog; format: ADME, organism-based, Canis lupus familiaris; conditions: in vivo, read-out: Vdss
[6] = Clearance in dog; format: ADME, organism-based, Canis lupus familiaris; conditions: in vivo
[7] = Clearance in rat; format: ADME, organism-based; conditions: in vivo
[8] = Permeability across MDCK cells; format: ADME, cell-based, Canis lupus familiaris; conditions: dog
[9] = Solubility in aqueous solution at pH 6.5; format: physicochemical
[10] = Oral bioavailability in rat; format: ADME, organism-based; conditions: in vivo

CCc1nc2ccccc2n1-c1nc(N2CCOCC2)c2nc(CN3CC(C4CCOCC4)C3)n(C)c2n1
bioavailability [1]: 56%
half-life [2]: 3.6 h
half-life [3]: 2.6 h
Vd [4]: 6.5 L/kg
Vd [5]: 6.5 L/kg
clearance [6]: 25 mL/min/kg
clearance [7]: 34 mL/min/kg
Papp [8]: 16 ×10⁻⁶ cm/s
solubility [9]: 338 µg/mL (≈ 654 µM)

CCc1nc2ccccc2n1-c1nc(N2CCOCC2)c2nc(CN3CCC(C(C)(C)O)CC3)n(C)c2n1
bioavailability [1]: > 100%
half-life [2]: 6.4 h
bioavailability [10]: 92%
half-life [3]: 1.5 h
Vd [4]: 4.1 L/kg
Vd [5]: 2 L/kg
clearance [6]: 5 mL/min/kg
clearance [7]: 19 mL/min/kg
